Reference: patent publication US6313095A, “Antiherpes tetrapeptide derivatives having a substituted aspartic acid side chain” (Boehringer Ingelheim (Canada), Ltd., priority 1989, dated 2001)
Where a SMILES comes first, the peptide text is derived from it. [ ]: non-standard residue; d: D form. The star is where a group is joined. ξ: configuration not given here. Asp(3,3-(CH2)4) = N[C@H](C(=O)O)C1(C(=O)O)CCCC1; Gly(1-COOH-cBu) = N[C@H](C(=O)O)C1(C(=O)O)CCC1; cPrCO(2,2,3,3-Me4) = CC1(C)C(C(=O)*)C1(C)C; X1 = CC1CCC(C)C(C(=O)*)C1C(=O)OCCc1ccccc1; Benzoyl(2-Ph) = O=C(c1ccccc1-c1ccccc1)*; ξAsp(3,3-Me2) = CC(C)(C(=O)O)C(N)C(=O)O; X3 = O=C(CCc1ccccc1)C1CCCCC1C(=O)*; Pentanoyl(4-Me) = CC(C)CCC(=O)*; X5 = CC(C)C(CCCCc1ccccc1)C(=O)*; Butanoyl(2-Et) = CCC(CC)C(=O)*; O(2S-octyl) = CCCCCC[C@H](C)O*; Tle = CC(C)(C)[C@H](N)C(=O)O; Leu(ol) = CC(C)C[C@H](N)CO; Hiv = CC(C)[C@H](O)C(=O)O; Isovaleryl = CC(C)CC(=O)*; Morpholide = C1CN(*)CCO1; Pyrrolidide = C1CCN(*)C1; X4 = CC1CCCC(C)C1C(=O)*; X6 = CCCCCCCCN(C)*; Bn = c1ccc(C*)cc1; NEt2 = CCN(CC)*

Biological target: T1, HSV-1 ribonucleotide reductase (Human herpesvirus 1, UniProt P08543)
T1 construct: HSV-1 ribonucleotide reductase (partially purified) was obtained from quiescent BHK-21/C13 cells infected with strain F HSV-1 virus; endogenous in cells; host or cells: quiescent BHK-21/C13 (hamster) cells infected with HSV-1 strain F; partially purified enzyme preparation
T1 sequence (P08543 whole entry): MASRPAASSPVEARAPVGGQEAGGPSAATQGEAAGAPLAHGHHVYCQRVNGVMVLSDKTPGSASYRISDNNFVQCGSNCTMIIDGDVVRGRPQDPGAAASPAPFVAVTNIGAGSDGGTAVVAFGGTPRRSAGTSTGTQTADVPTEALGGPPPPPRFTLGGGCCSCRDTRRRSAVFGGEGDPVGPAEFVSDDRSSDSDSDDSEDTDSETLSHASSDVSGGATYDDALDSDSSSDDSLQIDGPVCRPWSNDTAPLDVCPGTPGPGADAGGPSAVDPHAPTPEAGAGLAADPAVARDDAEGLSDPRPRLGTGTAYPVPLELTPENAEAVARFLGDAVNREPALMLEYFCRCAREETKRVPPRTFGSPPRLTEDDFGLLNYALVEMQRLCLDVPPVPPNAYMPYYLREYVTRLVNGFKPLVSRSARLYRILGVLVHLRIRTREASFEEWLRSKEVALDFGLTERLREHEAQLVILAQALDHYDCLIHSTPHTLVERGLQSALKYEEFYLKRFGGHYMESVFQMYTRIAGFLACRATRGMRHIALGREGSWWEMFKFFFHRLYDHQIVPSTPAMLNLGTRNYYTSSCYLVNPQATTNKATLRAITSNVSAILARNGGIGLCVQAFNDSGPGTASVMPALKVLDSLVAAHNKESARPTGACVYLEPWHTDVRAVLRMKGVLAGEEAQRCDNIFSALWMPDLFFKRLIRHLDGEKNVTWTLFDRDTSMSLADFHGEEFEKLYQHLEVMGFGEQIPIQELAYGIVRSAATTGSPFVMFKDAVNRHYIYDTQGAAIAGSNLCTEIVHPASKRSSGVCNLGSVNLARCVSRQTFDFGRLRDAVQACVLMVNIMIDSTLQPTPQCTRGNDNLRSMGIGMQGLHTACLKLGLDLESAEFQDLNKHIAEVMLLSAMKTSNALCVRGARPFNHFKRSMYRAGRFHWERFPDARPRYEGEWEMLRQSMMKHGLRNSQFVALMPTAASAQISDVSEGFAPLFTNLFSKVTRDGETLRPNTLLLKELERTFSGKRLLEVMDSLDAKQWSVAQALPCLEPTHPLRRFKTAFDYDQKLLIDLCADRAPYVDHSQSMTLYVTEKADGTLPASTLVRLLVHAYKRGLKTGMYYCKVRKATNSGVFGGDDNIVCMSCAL
Assay: Inhibition of Herpes Simplex Virus (HSV, Type 1) Ribonucleotide Reductase
Type: biochemical, herpes simplex virus type 1 (strain F)
Settings: mean of four assays
Text: Inhibition of Herpes Simplex Virus (HSV, Type 1) Ribonucleotide Reductase
HSV-1 ribonucleotide reductase (partially purified) was obtained from quiescent BHK-21/C13 cells infected with strain F HSV-1 virus at 10 plaque forming units/cell as described by E. A. Cohen et al., J. Gen. Virol., 66, 733 (1985).
b) Assay and Results for Exemplified Peptides
By following the procedure described by P. Gaudreau et al., J. Biol, Chem., 262, 12413 (1987), the assay results listed in the following table were obtained. The assay result for each peptide is expressed as the concentration of the peptide producing 50% of the maximal inhibition (IC50) of enzyme activity. The number of units of the enzyme preparation used in each assay was constant, based on the specific activity of the enzyme preparation. The results are relative to the activity obtained in control experiments without peptide and represent the mean of four assays that varied less than 10% with each other.

[1] = concentration producing 50% of the maximal inhibition of enzyme activity, partially purified enzyme
[2] = separated diastereoisomer, first eluted on HPLC (footnotes 1, 3)
[3] = separated diastereoisomer, second eluted on HPLC (footnotes 1, 3)

Row | SMILES | IC50 [1] | other results
1 | CC[C@H](C)[C@H](NC(=O)c1ccccc1-c1ccccc1)C(=O)N[C@@H](CC(=O)N1CCCC1)C(=O)N[C@@H](CC(=O)O)C(=O)N[C@@H](CC(C)C)C(=O)O [2-Biphenylylcarbonyl-Ile-Asp(pyrrolidino)-Asp-Leu-OH] ({Benzoyl(2-Ph)}-ID(Pyrrolidide)DL-OH) | 3600 nM | –
2 | CC[C@H](C)[C@H](NC(=O)C1C(C)(C)C1(C)C)C(=O)N[C@@H](CC(=O)N1CCCC1)C(=O)N[C@@H](CC(=O)O)C(=O)N[C@@H](CC(C)C)C(=O)O [(2,2,3,3-Tetramethylcyclopropyl)carbonyl-Ile-Asp(pyrrolidino)-Asp-Leu-OH] ({cPrCO(2,2,3,3-Me4)}-ID(Pyrrolidide)DL-OH) | 1400 nM | –
3 | CC[C@H](C)[C@H](NC(=O)CC(C)C)C(=O)N[C@@H](CC(=O)N1CCCC1)C(=O)N[C@@H](CC(=O)O)C(=O)N[C@@H](CC(C)C)C(=O)O [(CH3)2 CHCH2 CO-Ile-Asp(pyrrolidino)-Asp-Leu-OH] (Isovaleryl-ID(Pyrrolidide)DL-OH) | 2700 nM | –
4 | CCC(CC)C(=O)N[C@H](C(=O)N[C@@H](CC(=O)N1CCCC1)C(=O)N[C@H](C(=O)N[C@H](CO)CC(C)C)C1(C(=O)O)CCCC1)C(C)(C)C [(C2 H3)2 CHCO-Tbg-Asp(pyrrolidino)-Asp(cyPn)-(L-leucinol)] ({Butanoyl(2-Et)}-[Tle]D(Pyrrolidide)[Asp(3,3-(CH2)4)][Leu(ol)]) | 500 nM | –
5 | CCC(CC)C(=O)N[C@H](C(=O)N[C@@H](CC(=O)N1CCCC1)C(=O)N[C@@H](CC(=O)O)C(=O)N[C@H](CO)[C@@H](C)CC)C(C)(C)C [(C2 H5)2 CHCO-Tbg-Asp(pyrrolidino)-Asp-(L-isoleucinol)] | 11000 nM | –
6 | CC[C@H](C)[C@H](NC(=O)CCC(C)C)C(=O)N[C@@H](CC(=O)N1CCCC1)C(=O)N[C@@H](CC(=O)O)C(=O)N[C@@H](CC(C)C)C(=O)O [(CH3)2 CHCH2 CH2 CO-Ile-Asp(pyrrolidino)-Asp-Leu-OH] ({Pentanoyl(4-Me)}-ID(Pyrrolidide)DL-OH) | 3000 nM | –
7 | CCCCCC[C@H](C)OC(=O)C[C@H](NC(=O)[C@@H](NC(=O)C(CC)CC)C(C)(C)C)C(=O)N[C@H](C(=O)N[C@@H](CC(C)C)C(=O)O)C1(C(=O)O)CCCC1 [(C2 H5)2 CHCO-Tbg-Asp(1-methylheptyloxy)-Asp(cyPn)-Leu-OH] ({Butanoyl(2-Et)}-[Tle]D(O(2S-octyl))[Asp(3,3-(CH2)4)]L-OH) | 370 nM | –
8 | CC[C@H](C)[C@H](NC(=O)C1C(C)CCCC1C)C(=O)N[C@@H](CC(=O)N1CCCC1)C(=O)N[C@@H](CC(=O)O)C(=O)N[C@@H](CC(C)C)C(=O)O (stereo partly drawn) [(2,6-Dimethylcyclohexyl)carbonyl-Ile-Asp(pyrrolidino)-Asp-Leu-OH] (X4-ID(Pyrrolidide)DL-OH) | 2100 nM | –
9 | CC[C@H](C)[C@H](NC(=O)C1CCCCC1C(=O)CCc1ccccc1)C(=O)N[C@@H](CC(=O)N(CC)CC)C(=O)N[C@@H](CC(=O)O)C(=O)N[C@@H](CC(C)C)C(=O)O (stereo partly drawn) [[(d,1)-2-(3-Phenyl-1-oxopropyl)cyclohexanecarbonyl]-Ile-Asp(NEt2)-Asp-Leu-OH] (X3-ID(NEt2)DL-OH) | – | IC50 [2]: 1400 nM; IC50 [3]: 34000 nM
10 | CCC(CC)C(=O)N[C@@H](Cc1cccs1)C(=O)N[C@@H](CC(=O)N1CCCC1)C(=O)N[C@@H](CC(=O)O)C(=O)NCCC(C)(C)C [(C2 H5)2 CHCO-NHCH(2-thienylmethyl)CO-Asp(pyrrolidino)-Asp-NHCH2 CH2 C(CH3)3] | 60000 nM | –
11 | CCC(CC)C(=O)N[C@H](C(=O)N[C@@H](CC(=O)N1CCCC1)C(=O)N[C@@H](CC(=O)O)C(=S)N[C@@H](CC(C)C)C(=O)O)C(C)(C)C [(C2 H5)2 CHCO-Tbg-Asp(pyrrolidino)-Asp.PSI.[CSNH]Leu-OH] | 1900 nM | –
12 | CCC(CC)C(=O)N[C@H](C(=O)N[C@@H](CC(=O)N1CCCC1)C(=O)N[C@@H](CC(=O)O)C(=O)NCCC(C)(C)C)c1ccccc1 [(C2 H5)2 CHCO-Phg-Asp(pyrrolidino)-Asp-NHCH2 CH2 C(CH3)3] | 40000 nM | –
13 | CCC(CC)C(=O)N[C@H](C(=O)N[C@@H](CC(=O)N1CCCC1)C(=O)N[C@@H](CC(=O)O)C(=O)NCCC(C)(C)C)C(C)(C)C [(C2 H5)2 CHCO-Tbg-Asp(pyrrolidino)-Asp-NHCH2 CH2 C(CH)3] | 18000 nM | –
14 | CCC(CC)C(=O)N[C@H](C(=O)N[C@@H](CC(=O)N1CCCC1)C(=O)N[C@@H](CC(=O)O)C(=O)NCCC(C)(C)C)C1CCCC1 [(C2 H5)2 CHCO-Cpg-Asp(pyrrolidino)-Asp-NHCH2 CH2 C(CH)3] | 35000 nM | –
15 | CCC(CC)C(=O)N[C@H](C(=O)N[C@@H](CC(=O)N1CCCC1)C(=O)N[C@H](C(=O)N[C@@H](CC(C)C)C(=O)O)C(CC)(CC)C(=O)O)C(C)(C)C [(C2 H5)2 CHCO-Tbg-Asp(pyrrolidino)-Asp(diEt)-Leu-OH] | 100 nM | –
16 | CCCCCC[C@H](C)OC(=O)C[C@H](NC(=O)[C@@H](NC(=O)CCC(C)C)[C@@H](C)CC)C(=O)N[C@@H](CC(=O)O)C(=O)N[C@@H](CC(C)C)C(=O)O [(CH3)2 CHCH2 CH2 CO-Ile-Asp(1-methylheptyloxy)-Asp-Leu-OH] ({Pentanoyl(4-Me)}-ID(O(2S-octyl))DL-OH) | > 10000 nM | –
17 | CC[C@H](C)[C@H](NC(=O)C(CCCCc1ccccc1)C(C)C)C(=O)N[C@@H](CC(=O)N1CCCC1)C(=O)N[C@@H](CC(=O)O)C(=O)N[C@@H](CC(C)C)C(=O)O (stereo partly drawn) [[d,1-Ph(CH2)4 -CH[CH(CH3)2 ]CO]-Ile-Asp(pyrrolidino)-Asp-Leu-OH] (X5-ID(Pyrrolidide)DL-OH) | 1300 nM | –
18 | CCC(CC)C(=O)N[C@H](C(=O)N[C@@H](CC(=O)N1CCCC1)C(=O)N[C@@H](CC(=O)O)C(=O)N[C@@H](CC(C)C)C(=O)O)[C@@H](C)OCc1ccccc1 [(C2 H5)2 CHCO-Thr(OBz)-Asp(pyrrolidino)-Asp-Leu-OH] ({Butanoyl(2-Et)}-T(Bn)D(Pyrrolidide)DL-OH) | 3400 nM | –
19 | CC(C)C[C@H](NC(=O)[C@H](CC(=O)O)NC(=O)[C@H](CC(=O)N1CCCC1)NC(=O)[C@@H](NC(=O)[C@@H](O)C(C)C)C(C)(C)C)C(=O)O [[(S)-(CH3)2 CHCH(OH)CO]-Tbg-Asp(pyrrolidino)-Asp-Leu-OH] (H-[Hiv][Tle]D(Pyrrolidide)DL-OH) | 2800 nM | –
20 | CCCCCC[C@H](C)OC(=O)C[C@H](NC(=O)[C@@H](NC(=O)C(CC)CC)C(C)(C)C)C(=O)N[C@H](C(=O)N[C@@H](CC(C)C)C(=O)O)C1(C(=O)O)CCC1 [(C2 H5)2 CHCO-Tbg-Asp(1-methylheptyloxy)-Asp(cyBu)-Leu-OH] ({Butanoyl(2-Et)}-[Tle]D(O(2S-octyl))[Gly(1-COOH-cBu)]L-OH) | 500 nM | –
21 | CC[C@H](C)[C@H](NC(=O)c1ccccc1-c1ccccc1)C(=O)N[C@@H](CC(=O)N1CCOCC1)C(=O)N[C@@H](CC(=O)O)C(=O)N[C@@H](CC(C)C)C(=O)O [2-Biphenylylcarbonyl-Ile-Asp(morpholino)-Asp-Leu-OH] ({Benzoyl(2-Ph)}-ID(Morpholide)DL-OH) | 7200 nM | –
22 | CCC(CC)C(=O)N[C@H](C(=O)N[C@@H](CC(=O)N1CCCC1)C(=O)N[C@@H](CC(=O)O)C(=O)N[C@H](CO)CC1CCCCC1)C(C)(C)C [(C2 H5)CHCO-Tbg-Asp(pyrrolidino)-Asp-NH--CH(cyclohexylmethyl)CH2 OH] | 10500 nM | –
23 | CC[C@H](C)[C@H](NC(=O)c1ccccc1-c1ccccc1)C(=O)N[C@@H](CC(=O)N1CCCC1)C(=O)N[C@@H](CC(=O)O)C(=O)N[C@@H](CC(C)C)c1nnn[nH]1 [2-Biphenylcarbonyl-Ile-Asp(pyrrolidino)-Asp-NHCH--[CH2 CH(CH3)2-5-1H-tetrazole] | 13800 nM | –
24 | CC[C@H](C)[C@H](NC(=O)C1C(C)CCC(C)C1C(=O)OCCc1ccccc1)C(=O)N[C@@H](CC(=O)N1CCCC1)C(=O)N[C@@H](CC(=O)O)C(=O)N[C@@H](CC(C)C)C(=O)O (stereo partly drawn) [[(d,1)1α,2α,3β,6β-3,6-Dimethyl-2-(phenylethoxycarbonyl)cyclohexanecarbonyl]-Ile-Asp(pyrrolidino)-Asp-Leu-OH] (X1-ID(Pyrrolidide)DL-OH) | – | IC50 [2]: 500 nM; IC50 [3]: 2300 nM
25 | CCCCCCCCN(C)C(=O)C[C@H](NC(=O)[C@@H](NC(=O)C(CC)CC)C(C)(C)C)C(=O)N[C@H](C(=O)N[C@@H](CC(C)C)C(=O)O)C1(C(=O)O)CCC1 [(C2 H5)2 CHCO-Tbg-Asp(N-Me-N-octyl)-Asp(cyBu)-Leu-OH] ({Butanoyl(2-Et)}-[Tle]D(X6)[Gly(1-COOH-cBu)]L-OH) | 200 nM | –
26 | CCCCC(C(=O)O)[C@H](NC(=O)[C@H](CC(=O)N1CCCC1)NC(=O)[C@@H](NC(=O)C(CC)CC)C(C)(C)C)C(=O)N[C@@H](CC(C)C)C(=O)O (stereo partly shown) [(C2 H5)2 CHCO-Tbg-Asp(pyrrolidino)-Asp(Bu)-Leu-OH] | 2000 nM | –
27 | CCC(CC)C(=O)N[C@H](C(=O)N[C@@H](CC(=O)N1CCCC1)C(=O)N[C@@H](CC(=O)O)C(=O)NCCC(C)(C)C)[C@@H](C)OC [(C2 H5)2 CHCO-Thr(OMe)-Asp(pyrrolidino)-Asp-NHCH2 CH2 C(CH3)3] | 75000 nM | –
28 | CCC(CC)C(=O)N[C@H](C(=O)N[C@@H](CC(=O)N1CCCC1)C(=O)NC(C(=O)N[C@@H](CC(C)C)C(=O)O)C(C)(C)C(=O)O)C(C)(C)C (stereo partly drawn) [(C2 H5)2 CHCO-Tbg-Asp(pyrrolidino)-Asp(diMe)-Leu-OH] ({Butanoyl(2-Et)}-[Tle]D(Pyrrolidide)[ξAsp(3,3-Me2)]L-OH) | – | IC50 (separated diastereoisomer, first value listed (footnote 5, order not stated)): 140 nM; IC50 (separated diastereoisomer, second value listed (footnote 5, order not stated)): 9100 nM
